Experimental findings from ChEMBL document CHEMBL1250451, “Mechanistic insights into a Ca2+-dependent family of alpha-mannosidases in a human gut symbiont” (Nat Chem Biol, 2010) are described below.

What all share (type): protein assay
The target of assay [1] is T1, Alpha-1,2-mannosidase (BT_3530) (Bacteroides thetaiotaomicron) (UniProt Q8A1X8).
T1 sequence (whole entry): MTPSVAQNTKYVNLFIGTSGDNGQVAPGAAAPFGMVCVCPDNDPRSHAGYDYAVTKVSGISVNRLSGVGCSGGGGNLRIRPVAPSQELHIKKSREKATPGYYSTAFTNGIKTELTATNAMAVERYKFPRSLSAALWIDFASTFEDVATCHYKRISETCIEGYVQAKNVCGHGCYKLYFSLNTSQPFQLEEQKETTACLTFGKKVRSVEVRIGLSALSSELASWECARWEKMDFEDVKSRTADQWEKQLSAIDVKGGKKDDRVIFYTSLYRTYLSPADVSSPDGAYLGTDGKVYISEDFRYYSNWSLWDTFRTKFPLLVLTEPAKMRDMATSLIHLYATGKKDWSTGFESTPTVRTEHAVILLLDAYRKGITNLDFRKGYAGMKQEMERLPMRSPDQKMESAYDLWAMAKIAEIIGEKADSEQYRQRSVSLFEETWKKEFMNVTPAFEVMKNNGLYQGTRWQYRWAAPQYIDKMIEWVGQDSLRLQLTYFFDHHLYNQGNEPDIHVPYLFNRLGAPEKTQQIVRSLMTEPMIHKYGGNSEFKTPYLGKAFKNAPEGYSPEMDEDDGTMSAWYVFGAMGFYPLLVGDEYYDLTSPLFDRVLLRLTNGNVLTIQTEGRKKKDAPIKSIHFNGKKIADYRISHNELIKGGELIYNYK
Put plainly: Activity of Bacteroides thetaiotaomicron GH92 alpha-mannosidase GH92 alpha-mannosidase 3530 assessed as mannose release at 1 mM after 16 hrs by HPLC relative to untreated control after 16 hrs by HPLC.

Assay [2] concerns the target T2, Alpha-1,2-mannosidase (BT_4092) (Bacteroides thetaiotaomicron) (UniProt Q8A0C9).
T2 sequence (whole entry): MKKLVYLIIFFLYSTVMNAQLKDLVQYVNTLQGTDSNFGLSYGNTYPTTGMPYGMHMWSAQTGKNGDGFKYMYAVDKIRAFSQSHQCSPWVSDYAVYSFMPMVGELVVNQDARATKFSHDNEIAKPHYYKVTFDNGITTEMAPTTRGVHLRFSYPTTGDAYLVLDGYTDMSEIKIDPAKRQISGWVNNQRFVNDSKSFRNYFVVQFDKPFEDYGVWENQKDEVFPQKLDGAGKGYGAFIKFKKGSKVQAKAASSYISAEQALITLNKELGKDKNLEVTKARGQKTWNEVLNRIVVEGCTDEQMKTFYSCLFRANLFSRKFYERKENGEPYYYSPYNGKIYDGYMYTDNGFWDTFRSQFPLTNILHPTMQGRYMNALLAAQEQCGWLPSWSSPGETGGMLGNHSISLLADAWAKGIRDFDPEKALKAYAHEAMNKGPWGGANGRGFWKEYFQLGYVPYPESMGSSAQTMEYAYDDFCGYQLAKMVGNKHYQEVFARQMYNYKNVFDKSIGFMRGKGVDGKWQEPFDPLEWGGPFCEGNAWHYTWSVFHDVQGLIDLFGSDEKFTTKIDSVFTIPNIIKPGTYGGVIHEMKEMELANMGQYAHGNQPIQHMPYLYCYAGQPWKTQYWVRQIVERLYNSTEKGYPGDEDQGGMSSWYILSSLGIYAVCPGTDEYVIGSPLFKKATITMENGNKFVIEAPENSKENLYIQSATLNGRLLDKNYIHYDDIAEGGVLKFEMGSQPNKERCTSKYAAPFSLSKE
Put plainly: Activity of Bacteroides thetaiotaomicron GH92 alpha-mannosidase GH92 alpha-mannosidase 4092 assessed as mannose release at 1 mM after 16 hrs by HPLC relative to untreated control after 16 hrs by HPLC.

Assay [3] deals with T3, Alpha-1,2-mannosidase (BT_3994) (Bacteroides thetaiotaomicron) (UniProt Q8A0M7).
T3 sequence (whole entry): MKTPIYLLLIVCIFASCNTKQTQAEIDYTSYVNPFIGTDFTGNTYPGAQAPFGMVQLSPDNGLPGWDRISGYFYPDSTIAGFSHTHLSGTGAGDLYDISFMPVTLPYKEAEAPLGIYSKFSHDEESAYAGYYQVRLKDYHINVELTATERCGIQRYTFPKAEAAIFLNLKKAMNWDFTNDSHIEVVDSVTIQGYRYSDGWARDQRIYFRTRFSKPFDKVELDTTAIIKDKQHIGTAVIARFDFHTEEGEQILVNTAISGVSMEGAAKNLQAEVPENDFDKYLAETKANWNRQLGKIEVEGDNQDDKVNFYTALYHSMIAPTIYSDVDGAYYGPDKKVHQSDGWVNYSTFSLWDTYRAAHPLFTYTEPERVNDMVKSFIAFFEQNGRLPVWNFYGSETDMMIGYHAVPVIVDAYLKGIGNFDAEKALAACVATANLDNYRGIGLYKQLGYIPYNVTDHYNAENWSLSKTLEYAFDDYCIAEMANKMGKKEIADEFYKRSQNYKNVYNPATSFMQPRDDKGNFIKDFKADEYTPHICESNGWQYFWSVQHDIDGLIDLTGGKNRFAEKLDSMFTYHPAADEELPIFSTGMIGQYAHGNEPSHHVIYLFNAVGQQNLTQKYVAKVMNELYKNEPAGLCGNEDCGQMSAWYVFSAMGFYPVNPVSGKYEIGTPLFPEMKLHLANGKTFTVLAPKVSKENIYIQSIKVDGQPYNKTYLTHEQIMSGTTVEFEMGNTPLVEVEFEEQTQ
Put plainly: Activity of Bacteroides thetaiotaomicron GH92 alpha-mannosidase GH92 alpha-mannosidase 3994 assessed as mannose release at 1 mM after 16 hrs by HPLC relative to untreated control after 16 hrs by HPLC.

Calls of active or inactive are those of the source. No cut-off for these calls is given here.

As to `OC[C@H]1O[C@H](O[C@@H]2[C@H](O)[C@@H](O)O[C@H](CO)[C@H]2O)[C@@H](O)[C@@H](O)[C@@H]1O`, the Activity turned out to be 58% in assay [1] and 0.34% in assay [2].
As for `OC[C@H]1O[C@H](O[C@H]2[C@H](O)[C@H](O)[C@@H](O)O[C@@H]2CO)[C@@H](O)[C@@H](O)[C@@H]1O`, the Activity is 100% in assay [1], 0.73% in assay [2] and 20% in assay [3].
The like results for `OC[C@H]1O[C@H](O[C@H]2[C@@H](O)[C@H](O)[C@@H](CO)O[C@@H]2O)[C@@H](O)[C@@H](O)[C@@H]1O` were, in that order, “inactive”, 100% and “inactive”.
For `OC[C@H]1O[C@H](OC[C@H]2O[C@H](O)[C@@H](O)[C@@H](O)[C@@H]2O)[C@@H](O)[C@@H](O)[C@@H]1O`, in that order: “inactive”, “inactive” and “inactive”.
